From patent US7534809B2, “Phospho-indoles as HIV inhibitors” (priority 2004, dated 2009)
≈ marks a conversion by molar mass, not a printed value. Read-outs that look alike come from different tables or passages of the source.

Experiments:
[1] = pH dependent aqueous solubility, shake-flask method; assay type: physicochemical; settings: aqueous solution, thermodynamic from solid, saturated concentration 1 mM
Protocol: The aqueous solubility of each compound was determined by the conventional shake-flask method at a saturated concentration of 1 mM. The flask (vial) was shaken for 3 hrs at ambient temperature, and then centrifuged. The supernatant was analyzed by HPLC with UV detection for solubility determination. In general, a higher aqueous solubility is more desirable for drug candidates.

[2] = Human plasma protein binding, equilibrium dialysis; assay type: in vitro ADME; settings: pooled human plasma, 37° C., about 6 hours, 1 μM drug, read-out: Protein binding (human plasma) % Free
Protocol: The human plasma protein binding was determined using the Equilibrium Dialysis method. Dialysis was conducted with pooled human plasma at 37° C. for approximately 6 hours at a drug concentration of 1 μM. At the end of the dialysis, buffer samples from the buffer-side of the dialysis cell were collected and analyzed by LC/MS/MS for free drug concentration. For NNRTIs, a lower protein binding is more desirable.

CYP3A4 = biological target: T1, CYP3A4 (Homo sapiens, UniProt P08684); assay: CYP450 inhibition, CYP3A4/BFC screening kit; assay type: in vitro ADME
T1 construct: purchased BD Biosciences
T1 sequence (P08684 whole entry): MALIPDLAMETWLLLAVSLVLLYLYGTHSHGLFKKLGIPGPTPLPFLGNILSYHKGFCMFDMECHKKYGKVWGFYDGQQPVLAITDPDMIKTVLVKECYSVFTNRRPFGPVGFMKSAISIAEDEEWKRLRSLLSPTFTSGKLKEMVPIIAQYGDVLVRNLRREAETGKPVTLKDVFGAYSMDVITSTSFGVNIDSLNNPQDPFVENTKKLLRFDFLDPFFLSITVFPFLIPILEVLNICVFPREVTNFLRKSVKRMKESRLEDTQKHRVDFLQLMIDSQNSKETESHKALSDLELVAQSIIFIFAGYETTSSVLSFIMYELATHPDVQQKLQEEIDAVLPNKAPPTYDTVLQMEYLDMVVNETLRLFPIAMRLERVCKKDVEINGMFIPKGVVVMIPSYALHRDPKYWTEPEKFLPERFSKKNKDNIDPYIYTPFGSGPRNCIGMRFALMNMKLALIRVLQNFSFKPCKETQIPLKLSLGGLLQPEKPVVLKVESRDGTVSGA
Source text: (§1) In vitro CYP450 inhibition screening allows for the prediction of potential drug-drug interactions. […] Potency and rank order of the inhibition can be assessed by determination of the IC50 values for a particular isozyme.
(§2) CYP3A4 inhibition was screened using the CYP3A4/BFC high throughput inhibitor screening kit (BD Biosciences), CYP2D6 inhibition was screened using the CYP2D6/AMMC high throughput inhibitor screening kit (BD Biosciences), and CYP2C9 inhibition was screened using the P450-Glo™ Assay kit (Promega).

CYP2D6 = biological target: T2, CYP2D6 (Homo sapiens, UniProt P10635); assay: CYP450 inhibition, CYP2D6/AMMC screening kit; assay type: in vitro ADME
T2 construct: purchased BD Biosciences
T2 sequence (P10635 whole entry): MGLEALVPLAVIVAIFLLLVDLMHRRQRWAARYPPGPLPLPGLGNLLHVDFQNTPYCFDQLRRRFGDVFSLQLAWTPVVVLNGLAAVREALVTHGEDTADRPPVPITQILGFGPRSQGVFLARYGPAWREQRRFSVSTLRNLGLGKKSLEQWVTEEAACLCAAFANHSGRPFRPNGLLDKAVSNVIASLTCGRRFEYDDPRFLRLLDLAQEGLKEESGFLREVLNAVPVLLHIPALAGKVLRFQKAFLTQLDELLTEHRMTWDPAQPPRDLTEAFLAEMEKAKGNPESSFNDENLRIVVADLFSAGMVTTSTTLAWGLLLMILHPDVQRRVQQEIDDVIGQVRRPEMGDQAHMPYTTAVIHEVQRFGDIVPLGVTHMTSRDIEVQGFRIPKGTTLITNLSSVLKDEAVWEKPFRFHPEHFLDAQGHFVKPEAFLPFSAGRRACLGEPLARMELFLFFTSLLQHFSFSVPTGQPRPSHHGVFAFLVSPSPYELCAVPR
Source text: as §1, §2

CYP2C9 = biological target: T3, CYP2C9 (Homo sapiens, UniProt P11712); assay: CYP450 inhibition, CYP2C9 P450-Glo assay kit; assay type: in vitro ADME
T3 construct: purchased Promega
T3 sequence (P11712 whole entry): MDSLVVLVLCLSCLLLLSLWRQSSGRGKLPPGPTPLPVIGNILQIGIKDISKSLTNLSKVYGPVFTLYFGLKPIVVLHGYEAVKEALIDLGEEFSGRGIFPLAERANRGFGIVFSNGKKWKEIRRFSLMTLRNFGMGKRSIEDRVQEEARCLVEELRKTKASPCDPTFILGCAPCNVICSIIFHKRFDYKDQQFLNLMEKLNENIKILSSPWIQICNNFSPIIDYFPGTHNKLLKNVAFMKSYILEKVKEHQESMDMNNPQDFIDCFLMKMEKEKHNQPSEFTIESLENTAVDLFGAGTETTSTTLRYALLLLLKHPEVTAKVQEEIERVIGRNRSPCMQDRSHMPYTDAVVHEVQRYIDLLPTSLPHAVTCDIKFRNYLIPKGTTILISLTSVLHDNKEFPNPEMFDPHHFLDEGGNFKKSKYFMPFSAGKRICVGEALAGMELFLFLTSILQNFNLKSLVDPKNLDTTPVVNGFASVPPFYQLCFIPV
Source text: as §1, §2

[3] = Metabolic stability in human liver microsomes; assay type: in vitro ADME; settings: 10 μM, 1 mg/mL microsomes, 37° C., 2 hrs
Source text: (§3) The metabolic stability assay is to evaluate the stability of test compound in biological matrices. Data are useful in terms of understanding and predicting the elimination mechanisms of the test compound. CYP450-dependent metabolism of drugs can also vary widely from one species to another. Evaluating in vitro metabolism of a drug by liver microsomes from multiple species allows the comparison of metabolism in animal species to that of humans. This can help identify the most relevant animal model for PK and toxicology studies. The metabolic stability of a test compound was evaluated in vitro in liver microsomes of the rat, dog, monkey, and human. 10 μM of the test compound was pre-incubated for 5 min at 37° C. with 1 mg/mL liver microsomes in 0.1M Tris buffer, pH 7.4 containing 5 mM MgCl2 and 0.1 mM EDTA. Following pre-incubation, NADPH (final concentration of 3 mM) was added to start the reaction and samples incubated for 0 and 1 or 2 hours. After terminating the reaction, the supernatant was analyzed by HPLC-UV or LC/MS/MS for the disappearance of the parent and formation of metabolite(s). The %parent remaining was the peak area ratio of the 1 or 2 hr sample to the time 0 sample. In general, less metabolism (higher % parent values) is more desirable.

[4] = Metabolic stability in rat liver microsomes; assay type: in vitro ADME; settings: 10 μM, 1 mg/mL microsomes, 37° C., 2 hrs
Source text: as §3

[5] = Metabolic stability in dog liver microsomes; assay type: in vitro ADME; settings: 10 μM, 1 mg/mL microsomes, 37° C., 2 hrs
Source text: as §3

[6] = Metabolic stability in monkey liver microsomes; assay type: in vitro ADME; settings: 10 μM, 1 mg/mL microsomes, 37° C., 2 hrs
Source text: as §3

[7] = In vitro metabolism in liver microsomes, metabolic pathway; assay type: in vitro ADME, rat, dog, monkey, and human; settings: LC/MS/MS metabolite profiling
Protocol: Phase I biotransformation of a test compound is evaluated in this assay. Samples from the metabolic stability experiment were analyzed by LC/MS/MS for metabolite profiling and identification. Structures of metabolites were elucidated based on multiple MS/MS experiments such as full scan, neutral loss scan, and product ion scan. Metabolic pathways were then postulated based on the structures of major metabolites. For compounds from the phosphinate series, N-oxidation of the terminal pyridine ring is the predominant pathway, followed by the oxidation of the dimethyl-phenyl group, where the methyl group(s) is hydroxylated, further oxidized to an aldehyde, and finally to a carboxylic acid. The elucidation of metabolic pathways is important in terms of understanding the elimination mechanism of a test compound and assisting the design of new molecules with improved DM-PK profiles.

[8] = PK and oral bioavailability in the rat; assay type: in vivo, Sprague-Dawley rats; settings: for half-life: PEG400, read-out: T½ (converted)
Protocol: (§4) The pharmacokinetics of a test compound was evaluated in Sprague-Dawley rats and Beagle dogs. A typical PK study involved dosing of 2 to 3 animals via a single IV bolus injection at 1 mg/kg and another 3 animals via a single oral gavage at 5 mg/kg. Blood samples were collected at various time points over a 24-hr period. Plasma was separated and analyzed for test compound and its metabolite(s) by LC/MS/MS. PK parameters were calculated from the plasma concentration—time profile using a noncompartmental method. Oral bioavailability (F) was calculated based on dose-normalized AUC values from oral and IV administration. Higher oral bioavailability values are better.

[9] = PK and oral bioavailability in the dog; assay type: in vivo, Beagle dogs
Protocol: as §4

[10] = pH 1, simulated gastric fluid, pH1, ambient temperature, read-out: Aqueous solubility pH1
[11] = pH 3, aqueous buffer, pH3, ambient temperature, read-out: Aqueous solubility pH3
[12] = pH 7, aqueous buffer, pH7, ambient temperature, read-out: Aqueous solubility pH7
[13] = pH 9, aqueous buffer, pH9, ambient temperature, read-out: Aqueous solubility pH9
[14] = Sprague-Dawley, plasma, IV, 1.0 mg/kg, PEG400
[15] = Sprague-Dawley, plasma, PO, 5.0 mg/kg, PEG400
[16] = Beagle, plasma, IV, 1.0 mg/kg, PEG400
[17] = Beagle, plasma, PO, 5.0 mg/kg, 0.5% MC

COP(=O)(c1cc(C)cc(C)c1)c1c(C(=O)NCc2cc[n+]([O-])cc2)[nH]c2ccc(Cl)c(F)c12 (centres unmarked) [Compound B]
solubility at 3 h [1, 10]: 190 µM (≈ 95.4 µg/mL) | solubility at 3 h [1, 11]: 170 µM (≈ 85.3 µg/mL) | solubility at 3 h [1, 12]: 200 µM (≈ 100 µg/mL) | solubility at 3 h [1, 13]: 190 µM (≈ 95.4 µg/mL) | fraction unbound at 6 h, 1 μM [2]: 0.038 | IC50 (CYP3A4): 1.04 µM | IC50 (CYP2D6): > 10 µM | IC50 (CYP2C9): > 10 µM | Metabolic stability in liver microsomes % Parent after 2 hrs, Human [3]: 94% | Metabolic stability in liver microsomes % Parent after 2 hrs, Rat [4]: 1% | Metabolic stability in liver microsomes % Parent after 2 hrs, Dog [5]: 85% | Metabolic stability in liver microsomes % Parent after 2 hrs, Monkey [6]: 63%

COP(=O)(c1cc(C)cc(C)c1)c1c(C(=O)NCc2cc[n+]([O-])cc2)[nH]c2ccc(Cl)cc12 (centres unmarked) [Compound D]
solubility at 3 h [1, 10]: 52 µM (≈ 25.2 µg/mL) | solubility at 3 h [1, 11]: 74.2 µM (≈ 35.9 µg/mL) | solubility at 3 h [1, 12]: 50.6 µM (≈ 24.5 µg/mL) | solubility at 3 h [1, 13]: 66.8 µM (≈ 32.3 µg/mL) | fraction unbound at 6 h, 1 μM [2]: 0.016 | IC50 (CYP3A4): 1.07 µM | IC50 (CYP2D6): > 10 µM | IC50 (CYP2C9): > 10 µM | Metabolic stability in liver microsomes % Parent after 2 hrs, Human [3]: 76% | Metabolic stability in liver microsomes % Parent after 2 hrs, Rat [4]: 1% | Metabolic stability in liver microsomes % Parent after 2 hrs, Dog [5]: 82% | Metabolic stability in liver microsomes % Parent after 2 hrs, Monkey [6]: 24% | Metabolic pathway (in vitro) [7]: Hydroxylation to CH3OH— to CHO— to COOH— | AUCinf/Dose ([8]; IV, 1.0 mg/kg, PEG400): 188.3 | CI ([8]; IV, 1.0 mg/kg, PEG400): 90.297 mL/min/kg | AUCinf/Dose ([8]; PO, 5.0 mg/kg, PEG400): 30.2 | F ([8]; PO, 5.0 mg/kg, PEG400, oral bioavailability): 16.0% | AUC(0-inf) [8, 14]: 188 ng·h/mL | AUC(0-t) [8, 14]: 174 ng·h/mL | Cmax [8, 14]: 166 ng/mL | half-life ([8]; Sprague-Dawley, plasma, IV, 1.0 mg/kg): 0.9 h | Vd ([8]; Sprague-Dawley, plasma, IV, 1.0 mg/kg, PEG400, read-out: Vss): 6.37 L/kg | AUC(0-inf) [8, 15]: 151 ng·h/mL | AUC(0-t) [8, 15]: 132 ng·h/mL | Cmax [8, 15]: 45 ng/mL | Tmax [8, 15]: 0.5 h | half-life ([8]; Sprague-Dawley, plasma, PO, 5.0 mg/kg): 2.2 h | AUC(0-inf) [9, 16]: 1220 ng·h/mL | AUC(0-t) [9, 16]: 1010 ng·h/mL | Cmax [9, 16]: 430 ng/mL | half-life ([9]; Beagle, plasma, IV, 1.0 mg/kg, PEG400, read-out: T½ (converted)): 3.2 h | Vd ([9]; Beagle, plasma, IV, 1.0 mg/kg, PEG400, read-out: Vss): 3.72 L/kg | AUC(0-inf) [9, 17]: 747 ng·h/mL | AUC(0-t) [9, 17]: 696 ng·h/mL | Cmax [9, 17]: 116 ng/mL | Tmax [9, 17]: 2.7 h | half-life ([9]; Beagle, plasma, PO, 5.0 mg/kg, 0.5% MC, read-out: T½ (converted)): 2.6 h | AUCinf/Dose ([9]; IV, 1.0 mg/kg, PEG400): 1220.5 | CI ([9]; IV, 1.0 mg/kg, PEG400): 13.7 mL/min/kg | AUCinf/Dose ([9]; PO, 5.0 mg/kg, 0.5% MC): 149.3 | F ([9]; PO, 5.0 mg/kg, 0.5% MC, oral bioavailability): 12.4%

COP(=O)(c1cc(C)cc(F)c1)c1c(C(=O)NCc2cc[n+]([O-])cc2)[nH]c2ccc(Cl)cc12 (centres unmarked) [Compound G]
fraction unbound at 6 h, 1 μM [2]: 0.016 | IC50 (CYP3A4): 1.14 µM | IC50 (CYP2D6): > 10 µM | IC50 (CYP2C9): 8.85 µM | Metabolic stability in liver microsomes % Parent after 2 hrs, Human [3]: 85% | Metabolic stability in liver microsomes % Parent after 2 hrs, Rat [4]: 24% | Metabolic stability in liver microsomes % Parent after 2 hrs, Dog [5]: 77% | Metabolic stability in liver microsomes % Parent after 2 hrs, Monkey [6]: 41% | Metabolic pathway (in vitro) [7]: Hydroxylation to CH3OH— to CHO— to COOH—
